In patent US8354426B2, “Naphthyridine derivative monohydrate and method for producing the same” (Toyama Chemical Co., Ltd., priority 2007, dated 2013):
Structures can show the parent of a compound that is named as a salt.

Experiments:
E. faecalis D-2648 = test: Susceptibility test (MIC, microtiter broth dilution); type: cell-based; conditions: Enterococcus faecalis, D2648
Procedure: (§1) The compound of the present invention was dissolved in dimethyl sulfoxide and measured for the antibacterial activity (MIC) by a microtiter broth dilution method recommended by Japanese Society of Chemotherapy.
(§2) Staphylococcus aureus (S. aureus Smith, FDA209P, F-3095), Enterococcus faecalis (E. faecalis D-2648) and Escherichia coli (E. coli NIHJ) were used as the bacteria.
(§3) The bacterial cells, grown overnight on a Mueller-Hinton agar: MHA plate at 35° C., were suspended in a sterilized physiological saline so as to be a 0.5 McFarland equivalent standard. The cell suspension was diluted ten-fold to prepare an inoculum. Approximately 0.005 mL of the inoculum was inoculated into a cation-adjusted Mueller-Hinton broth (CAMHB), 100 μL/well containing the test substance and allowed to grow overnight at 35° C. The lowest concentration of the test substance at which no bacterial growth was observed by the naked eye was determined as MIC.

S. aureus F-3095 = test: as above; type: cell-based; conditions: Staphylococcus aureus, F3095
Procedure: as §1, §2, §3

S. aureus FDA209P = test: as above; type: cell-based; conditions: Staphylococcus aureus, CAMHB, overnight at 35° C.
Procedure: as §1, §2, §3

S. aureus Smith = test: as above; type: cell-based; conditions: Staphylococcus aureus, CAMHB, overnight at 35° C.
Procedure: as §1, §2, §3

E. coli NIHJ = test: as above; type: cell-based; conditions: Escherichia coli, CAMHB, overnight at 35° C.
Procedure: as §1, §2, §3

Hygroscopicity test = type: physicochemical; conditions: stored three weeks, room temperature, relative humidity 97%
From the text: The compound of the present invention and the comparative compound were stored for three weeks under the conditions of room temperature and the relative humidity of 97%. […] On the other hand, the comparative compound had deliquesced.

[1] = Solubility in phosphate buffer solution; type: physicochemical; conditions: aqueous buffer, thermodynamic from solid; 0.2 mol/L phosphate buffer solution (pH 6.5), 25° C., shaken 48 hours

SMILES: O=c1ccc2ncc(F)cc2n1CCN1CCC(NCc2cc3c(cn2)OCCO3)CC1 [Example 16, 1-(2-(4-((2,3-dihydro(1,4)dioxino(2,3-c)pyridin-7-ylmethyl)amino)piperidin-1-yl)ethyl)-7-fluoro-1,5-naphthyridin-2(1H)-one monohydrate]
- MIC (E. faecalis D-2648): 0.25 µg/mL
- MIC (S. aureus F-3095): 0.0313 µg/mL
- MIC (S. aureus FDA209P): 0.0313 µg/mL
- MIC (S. aureus Smith): 0.0625 µg/mL
- MIC (E. coli NIHJ): 0.125 µg/mL
- Appearance after storage (hygroscopicity / deliquescence) (Hygroscopicity test; monohydrate): powder with no apparent change
- solubility at 48 h [1]: 21.2 mg/mL

SMILES: O=c1ccc2ncc(F)cc2n1CCN1CCC(NCc2cc3c(cn2)OCCO3)CC1 [Comparative Example 1, 1-(2-(4-((2,3-dihydro(1,4)dioxino(2,3-c)pyridin-7-ylmethyl)amino)piperidin-1-yl)ethyl)-7-fluoro-1,5-naphthyridin-2(1H)-one trihydrochloride, reference compound]
- Appearance after storage (hygroscopicity / deliquescence) (Hygroscopicity test; trihydrochloride): deliquesced
